How the values were obtained:
[1] = cited from earlier work
deoxypyridinoline (DPD) = experiment: Clinical trial: bone resorption marker deoxypyridinoline (DPD), urine marker; format: in vivo, human; details: for DPD, GLM least square mean after 4 months: daily 20 μg or weekly 140 μg oral, adjusted for baseline, age, body mass index, postmenopausal women
Excerpt: (§1) Each group included five subjects.
(§2) Equimolar quantities of both substances were investigated.
(§3) Each dosage was consumed orally at breakfast.
(§4) Treatment duration was 4 months.

[2] = test system: bone-specific alkaline phosphatase (BAP); experiment: Clinical trial: bone-specific alkaline phosphatase (BAP), serum marker; format: in vivo, human; details: for BAP, GLM least square mean after 4 months: daily 20 μg or weekly 140 μg oral, adjusted for baseline, age, body mass index, postmenopausal women
Excerpt: as §1, §2, §3, §4

[3] = Clinical trial: plasma 25-OH D after single oral bolus (pharmacokinetics); details: single oral dose 140 μg of each active
Procedure: Subjects were randomly assigned to one of […] treatment groups (i.e., daily, weekly, bolus as single dose, and bolus as combination dose). Each group included five subjects. They are followed for four months in Zürich, Switzerland during the winter.
Equimolar quantities of both substances were investigated. The regimen was based on 20 μg/day (or its equivalent on a weekly basis) of 25-OH D3.
Each dosage was consumed orally at breakfast. The duration of the study was four months for the “Daily” and “Weekly” groups. Subjects enrolled in the “Bolus” group consumed orally a single dosage at the second study visit.
Plasma concentrations of 25-OH D3 (e.g., peak and steady state) were determined by obtaining samples from the subjects at various times after the dosage was ingested. […] The assessments continued on Monday of Weeks 3, 5, 7, 9, 11, 13 and 15.

[4] = daily 20 μg or weekly 140 μg, 4 months, repeated measurement analysis over 13 visits
[5] = daily or weekly treatment, identical dosages, 4 months

In the case of 25-hydroxyvitamin D, the “Blood concentration above which hypercalcemia may occur” value ([1]; in vivo) is listed as “greater than 375 nmol/L”.

For `C=C1CC[C@H](O)C/C1=C/C=C1\CCC[C@]2(C)[C@@H]([C@H](C)CCCC(C)C)CC[C@@H]12` [Vitamin D3, cholecalciferol], the “DPD, GLM least square mean after 4 months” value (deoxypyridinoline (DPD)) was 9.8 nmol/mmol creatine, the “BAP, GLM least square mean after 4 months” value [2] was 76.5 IU/L and the “Time span with increase in plasma 25-OH D levels by at least 30 nmol/L” value [3] was “no increase of that magnitude was observed”.

For Vitamin D, the “Blood concentration of 25-hydroxyvitamin D after ingestion of the safe upper level as dietary supplement” value ([1]; 250 μg/day vitamin D) is listed as “about 200 nmol/L”.

In the case of `C=C1CC[C@H](O)C/C1=C/C=C1\CCC[C@]2(C)[C@@H]([C@H](C)CCCC(C)(C)O)CC[C@@H]12` [25-OH D3, 25-hydroxyvitamin D3], the “DPD, GLM least square mean after 4 months” value (deoxypyridinoline (DPD)) is reported as 8.2 nmol/mmol creatine, the “DPD change vs. Daily/weekly Vitamin D3” value (deoxypyridinoline (DPD); [4]) is reported as −17.0% and the “Reduction of DPD versus Vitamin D3” value (deoxypyridinoline (DPD); [5]) is reported as 17.0%. For the same molecule, the “BAP, GLM least square mean after 4 months” value [2] was 74.7 IU/L, the “BAP change vs. Daily/weekly Vitamin D3” value [2, 4] was −2.4% and the “Reduction of BAP versus Vitamin D3” value [2, 5] was 2.4%. For the same molecule, the “Time span with increase in plasma 25-OH D levels by at least 30 nmol/L” value [3] was 4 to 49 h.
